From patent publication US20110212176A1, “CICLOPIROX AND CYTARABINE FOR THE TREATMENT OF LEUKEMIC DISORDERS” (priority 2008, published 2011)
Entries after “also recorded” stand apart in the source; their conditions may differ.

Experiments:
leukemia cell lines = test: MTS cell viability assay in leukemia/lymphoma cell lines; type: cell-based; settings: increasing concentrations, 72 hours
Procedure: Leukemia (HL-60, RSV411, k562, Jurkat, U937), LYMPHOMA (MDAY-D2), solid tumour cell lines (PPC-1, HeLa, OVCAR-3, DU-145, HT-29) and GMO5757 human lung fibroblasts were cultured in RPMI 1640 medium. HepG2 hepatoma cells and MRC5 human lung fibroblasts were grown in Dulbecco modified Eagle medium. OCI-M2, OCI-AML2 and NB4 leukemia cell lines and OPM2, KMS11, LP1, UTMC2, KSM18 and OCIMy5 myeloma cell lines were maintained in Iscove Modified Dulbecco Medium. LF1 human lung fibroblasts were maintained in HAM medium. All media were supplemented with 10% fetal calf serum, 100 μg/mL of penicillin, and 100 units/mL of streptomycin (all from Hyclone, Logan, Utah). The cells were incubated at 37° C. in a humidified air atmosphere supplemented with 5% CO2.
The CellTiter96 aqueous nonradioactive (MTS) assay was used to measure cell viability according to the manufacturer's instructions (Promega). Propidium iodide (PI) staining was used according to manufacturer's instructions (Biovision, Mountain view, Calif.).
From this chemical screen, the antimicrobial CPX was identified. CPX is currently used for the topical treatment of cutaneous fungal infections. As an anti-fungal agent, the mechanism of action of CPX is not well understood, but appears related to binding intracellular iron and inhibiting iron containing enzymes. […] 72 hours after incubation, cell viability was measured by the MTS assay. […]

[1] = tested on: OCI-AML2, K562 human leukemia cells and MDAY-D2 murine leukemia cells; type: in vivo; settings: CPX 25 mg/kg daily by oral gavage; all 3 mouse models
Procedure: MDAY-D2 (MDAY) murine leukemia cells (5×10^5) were injected intra-peritoneal into NOD/SCID mice (Ontario Cancer Institute, Toronto, ON), OCI-AML2 and K562 cells (2×10^6) were injected subcutaneously into both flanks of sub-lethally irradiated (3.5 Gy) NOD/SCID mice. Mice were then treated daily by oral gavages with CPX (25 mg/kg) in PBS or vehicle control. Tumour volume (tumour length×width^2×0.5236) (Mol Cancer Ther. 2004; 3:1239-1248) was measured weekly using calipers. Eight (MDAY-D2), 11 (OCI-AML2) or 30 (K562) days after injection of cells, mice were sacrificed, and the volume and weight of the tumours was measured. All animal studies were carried out according to the regulations of the Canadian Council on Animal Care and with the approval of the local ethics review board.
Given the effects in leukemia cells lines, the effects of oral CPX was evaluated in 3 mouse models of leukemia. Sublethally irradiated NOD-SCID mice were injected subcutaneously with OCI-AML2 or K562 human leukemia cells or intraperitoneally with MDAY-D2 murine leukemia cells. […].

survivin promoter = test: Survivin promoter luciferase reporter screen in HeLa cells; type: cell-based, human; settings: 5 μM, 24 hours
Excerpt: The full-length survivin promoter (−1059 upstream of the initiating ATG) (NIEHS-SNPs, Environmental Genome Project, NIEHS ES15478, Department of Genome Sciences, Seattle, Wash.) was isolated from HeLa genomic DNA using the forward primer 5′-[…]-3′ (SEQ ID NO:1) and the reverse primer 5′-[…]-3′ (SEQ ID NO:2).
The promoter was sub-cloned into the GL4.20 firefly luciferase reporter vector (Promega Corporation, Madison, Wis.). Clones were sequence-verified for orientation and integrity using a CEQ 8000 Genetic Analysis System (Beckman, Mississauga, ON, Canada). […]
(A) HeLa cells stably overexpressing the survivin promoter driving luciferase (15000 cells/well) were plated in 96-well plates. […] After incubation, survivin promoter activity was assessed by the luciferase assay described below. […]
Luciferase activity was measured according to the manufacturer's instructions and as previously described (Promega, Madison, Wis.) (Mao Blood). […] After 10-minutes incubation, an equal volume of Bright-Glo Luciferase substrate (Promega) was added, and the luminescence signal was detected with a 96-well Luminoskan luminescence plate reader (Thermo Fisher Scientific, Waltham, Mass.) with 5-seconds integration time. […]

[2] = tested on: HeLa, PPC-1 and MDAY-D2 cells; test: Cell cycle analysis by PI staining and flow cytometry; type: cell-based; settings: 5 μM CPX; eighteen hours; prior to the onset of cell death
Procedure: (§1) FIG. 5: Cell cycle arrest, survivin decrease and p53 increase precede CPX induced cell death. A) HeLa, PPC-1 and MDAY-D2 cells were treated with 5 μM CPX or buffer control. Eighteen hours after incubation, cell cycle was analyzed by PI staining and Flow cytometry. B) NB4 and OCI-M2 cell lines were incubated with CPX (5 μM) for 48 hours. After incubation cells were harvested and nuclear proteins were isolated. Levels of p53 and the nuclear protein glucocorticoid receptor (GR) were measured by immunoblotting. C) Solid tumor (OVCAR3, HT-29, HepG2, DU145, HeLa) and leukemia (OCI-M2, OCI-AML2, NB4, HL-6) cell lines were treated with CPX (2.5 μM) or buffer control for 48 hours. After incubation, total protein was isolated. Levels of survivin and GAPDH were measured by immunoblotting.
Cell-cycle analysis was performed as previously described (Blood 112(3):760). Briefly, cells were harvested, washed with cold PBS, re-suspended in 70% cold ethanol, and incubated overnight at −20° C. Cells were then treated with 100 ng/mL of DNase-free RNase (Invitrogen, Carlsbad, Calif.) at 37° C. for 30 minutes, washed with cold PBS, and re-suspended in PBS with 50 μg/mL of PI (Sigma). DNA content was analyzed by flow cytometry (FACSCalibur; BD Biosciences, San Jose, Calif.).

[3] = tested on: survivin, Cyclin D1, YY1 and FTII-D; test: Immunoblotting of protein expression after CPX treatment; type: cell-based; settings: prior to the onset of cell death
Procedure: as §1
Total cell lysates were prepared from cells. […] Protein concentrations were measured by the Bradford assay (Anal Biochem. 1996; 236:221-228). […]
Membranes were probed with polyclonal rabbit anti-human survivin (1 μg/mL) (NOVUS), monoclonal mouse anti-human p53 (0.5 μg/mL), polyclonal rabbit anti-human GR (0.5 μg/mL) both from (Santa Cruz Biotechnologies, CA), or with mouse anti-human GADPH (Trevigen, Gaithersburg, Md.). […] Detection was performed by the enhanced chemical luminescence method (Pierce, Rockford, Ill.).

Cc1cc(C2CCCCC2)n(O)c(=O)c1 [CPX, 6-Cyclohexyl-1-hydroxy-4-methyl-2(1H)-pyridone]
effect on cell viability (leukemia cell lines): decreased cell viability in all leukemia cell lines tested; also recorded: decreased cell viability in all leukemia and lymphoma cell lines
decrease in tumor volume compared to control [1]: up to 65%
decrease in tumor weight compared to control [1]: up to 65%
inhibition of survivin transactivation (luciferase expression) (survivin promoter): inhibitor of survivin transactivation
cell cycle effect [2]: arrested cells in the G1/S phase of the cell cycle
effect on protein expression [3]: down-regulated the expression of survivin, Cyclin D1, and the transcription factors YY1 and FTII-D
